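Grown in 96-well plates, cells were treated for 48 hours with each compound at five concentrations. Insufficient inhibition: endpoint recorded as highest concentration tested. The concentration for 50% growth inhibition is given as GI50. Definition used: TGI = concentration required for complete inhibition of growth.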
Columns and labels:
Assay in all cases: DTP human tumour cell line panel, 48 h
[1] = system: 786-0 renal
[2] = system: A498 renal
[3] = system: A549 NSCLC
[4] = system: ACHN renal
[5] = system: BT-549 breast
[6] = system: CAKI-1 renal
[7] = system: CCRF-CEM leukemia
[8] = system: COLO 205 colon
[9] = system: DU-145 prostate
[10] = system: EKVX NSCLC
[11] = system: HCC-2998 colon
[12] = system: HCT-116 colon
[13] = system: HCT-15 colon
[14] = system: HL-60(TB) leukemia
[15] = system: HOP-62 NSCLC
[16] = system: HOP-92 NSCLC
[17] = system: HS 578T breast
[18] = system: HT29 colon
[19] = system: IGROV1 ovarian
[20] = system: K-562 leukemia
[21] = system: KM12 colon
[22] = system: LOX IMVI melanoma
[23] = system: M14 melanoma
[24] = system: MALME-3M melanoma
[25] = system: MCF7 breast
[26] = system: MDA-MB-231 breast
[27] = system: MDA-MB-435
[28] = system: MDA-MB-468 breast
[29] = system: MOLT-4 leukemia
[30] = system: NCI-H226 lung
[31] = system: NCI-H23 lung
[32] = system: NCI-H460 lung
[33] = system: NCI-H522 lung
[34] = system: NCI/ADR-RES ovarian
[35] = system: OVCAR-3 ovarian
[36] = system: OVCAR-4 ovarian
[37] = system: OVCAR-5 ovarian
[38] = system: OVCAR-8 ovarian
[39] = system: PC-3 prostate
[40] = system: RPMI-8226 leukemia
[41] = system: RXF 393 renal
[42] = system: SF-268 CNS
[43] = system: SF-295 CNS
[44] = system: SF-539 CNS
[45] = system: SK-MEL-2 melanoma
[46] = system: SK-MEL-28 melanoma
[47] = system: SK-MEL-5 melanoma
[48] = system: SK-OV-3 ovarian
[49] = system: SN12C renal
[50] = system: SNB-19 CNS
[51] = system: SNB-75 CNS
[52] = system: SR leukemia
[53] = system: SW-620 colon
[54] = system: T-47D breast
[55] = system: TK-10 renal
[56] = system: U251 CNS
[57] = system: UACC-257 melanoma
[58] = system: UACC-62 melanoma
[59] = system: UO-31 renal

O=C(CNc1nc(-c2ccccc2)cs1)Nc1cccc([N+](=O)[O-])c1
GI50 [1]: 253 nM
TGI [1]: 663 nM
GI50 [2]: 223 nM
TGI [2]: 555 nM
GI50 [3]: 323 nM
TGI [3]: 1390 nM
GI50 [4]: 200 nM
TGI [4]: 436 nM
GI50 [5]: 167 nM
TGI [5]: 347 nM
GI50 [6]: 182 nM
TGI [6]: 558 nM
GI50 [7]: 58.7 nM
TGI [7]: 4.52 µM
GI50 [8]: 193 nM
TGI [8]: 367 nM
GI50 [9]: 264 nM
TGI [9]: 730 nM
GI50 [10]: 231 nM
TGI [10]: 580 nM
GI50 [11]: 175 nM
TGI [11]: 321 nM
GI50 [12]: 188 nM
TGI [12]: 590 nM
GI50 [13]: 93 nM
TGI [13]: 413 nM
GI50 [14]: 198 nM
TGI [14]: 937 nM
GI50 [15]: 216 nM
TGI [15]: 469 nM
GI50 [16]: 243 nM
TGI [16]: 660 nM
GI50 [17]: 230 nM
TGI [17]: 739 nM
GI50 [18]: 142 nM
TGI [18]: 357 nM
GI50 [19]: 108 nM
TGI [19]: 459 nM
GI50 [20]: 223 nM
TGI [20]: 11.2 µM
GI50 [21]: 246 nM
TGI [21]: 693 nM
GI50 [22]: 106 nM
TGI [22]: 238 nM
GI50 [23]: 177 nM
TGI [23]: 347 nM
GI50 [24]: 172 nM
TGI [24]: 314 nM
GI50 [25]: 166 nM
TGI [25]: 551 nM
GI50 [26]: 196 nM
TGI [26]: 375 nM
GI50 [27]: 170 nM
TGI [27]: 319 nM
GI50 [28]: 185 nM
TGI [28]: 358 nM
GI50 [29]: 117 nM
TGI [29]: 2530 nM
GI50 [30]: 188 nM
TGI [30]: 444 nM
GI50 [31]: 72.4 nM
TGI [31]: 202 nM
GI50 [32]: 136 nM
TGI [32]: 616 nM
GI50 [33]: 129 nM
TGI [33]: 297 nM
GI50 [34]: 175 nM
TGI [34]: 381 nM
GI50 [35]: 251 nM
TGI [35]: 708 nM
GI50 [36]: 223 nM
TGI [36]: 511 nM
GI50 [37]: 203 nM
TGI [37]: 413 nM
GI50 [38]: 222 nM
TGI [38]: 568 nM
GI50 [39]: 217 nM
TGI [39]: 1860 nM
GI50 [40]: 291 nM
TGI [40]: 1230 nM
GI50 [41]: 128 nM
TGI [41]: 269 nM
GI50 [42]: 257 nM
TGI [42]: 725 nM
GI50 [43]: 223 nM
TGI [43]: 519 nM
GI50 [44]: 180 nM
TGI [44]: 358 nM
GI50 [45]: 177 nM
TGI [45]: 323 nM
GI50 [46]: 199 nM
TGI [46]: 379 nM
GI50 [47]: 166 nM
TGI [47]: 302 nM
GI50 [48]: 128 nM
TGI [48]: 335 nM
GI50 [49]: 184 nM
TGI [49]: 469 nM
GI50 [50]: 206 nM
TGI [50]: 500 nM
GI50 [51]: 136 nM
TGI [51]: 320 nM
GI50 [52]: 175 nM
TGI [52]: > 34.9 µM
GI50 [53]: 66.3 nM
TGI [53]: 914 nM
GI50 [54]: 218 nM
TGI [54]: 632 nM
GI50 [55]: 197 nM
TGI [55]: 660 nM
GI50 [56]: 262 nM
TGI [56]: 927 nM
GI50 [57]: 256 nM
TGI [57]: 826 nM
GI50 [58]: 119 nM
TGI [58]: 245 nM
GI50 [59]: 169 nM
TGI [59]: 444 nM

Source: PubChem BioAssay (NCI)
